Activity calls are given as the source filed them.
What was measured:
[1] = test system: Streptococcus sp. 'group A'; experiment: growth inhibition of control SK(-) GAS strain, dose response, counter-screen for streptokinase expression inhibitor project, luminescence, kanamycin, BacTiterGlo, confirmation (AID 1900); type: functional, organism-based
[2] = Luminescent dose response cell-based high throughput screening assay for inhibitors of the Janus kinase 2 mutant JAK2V617F. [Related pubchem assays: 1446 (Primary screen.), 1521 (Confirmation assay.), 1486 (Counter screen.)]; type: functional
[3] = test system: Streptococcus; experiment: Group A Streptococcus viability loss, dose response, counter-screen for streptokinase expression inhibitor project, luminescence, BacTiterGlo (AID 1915); type: functional, organism-based;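 note: potency for reduction of bacterial viability or growth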
[4] = biological target: T1, Heat shock factor protein 1 (Mus musculus, UniProt P38532); experiment: inhibition of MG132-induced HSE-luciferase signal, confirmation, cell-based, NIH3T3, luminescence, dose retest (AID 2382); type: functional;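 note: NIH3T3 fibroblasts with HSF1-driven luciferase reporter stressed by proteasome inhibitor MG132; luminescence from HSF1-driven luciferase expression after 8 hours of MG132 stress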
T1 sequence (P38532 whole entry): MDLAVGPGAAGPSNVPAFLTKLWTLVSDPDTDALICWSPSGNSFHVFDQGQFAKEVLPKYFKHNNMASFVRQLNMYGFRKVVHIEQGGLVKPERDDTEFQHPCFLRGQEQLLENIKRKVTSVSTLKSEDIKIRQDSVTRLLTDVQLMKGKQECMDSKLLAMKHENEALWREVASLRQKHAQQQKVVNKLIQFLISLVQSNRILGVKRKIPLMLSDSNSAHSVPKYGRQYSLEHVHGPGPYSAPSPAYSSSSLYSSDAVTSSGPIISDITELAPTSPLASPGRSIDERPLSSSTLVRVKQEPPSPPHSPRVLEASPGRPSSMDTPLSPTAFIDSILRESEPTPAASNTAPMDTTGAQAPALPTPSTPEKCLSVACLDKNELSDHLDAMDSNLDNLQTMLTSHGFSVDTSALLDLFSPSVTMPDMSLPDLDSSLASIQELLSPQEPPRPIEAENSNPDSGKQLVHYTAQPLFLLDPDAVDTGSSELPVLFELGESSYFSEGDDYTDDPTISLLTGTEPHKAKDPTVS

[5] = biological target: T2, Protein RecA (Mycobacterium tuberculosis, UniProt P9WHJ3); experiment: Fluorescence Cell-Free Homogeneous Dose Retest to Identify Inhibitors of RecA-Intein Splicing Activity. [Related pubchem assays (depositor defined):AID2097, AID2223, AID489010, AID492950]; type: functional
T2 sequence (P9WHJ3 whole entry): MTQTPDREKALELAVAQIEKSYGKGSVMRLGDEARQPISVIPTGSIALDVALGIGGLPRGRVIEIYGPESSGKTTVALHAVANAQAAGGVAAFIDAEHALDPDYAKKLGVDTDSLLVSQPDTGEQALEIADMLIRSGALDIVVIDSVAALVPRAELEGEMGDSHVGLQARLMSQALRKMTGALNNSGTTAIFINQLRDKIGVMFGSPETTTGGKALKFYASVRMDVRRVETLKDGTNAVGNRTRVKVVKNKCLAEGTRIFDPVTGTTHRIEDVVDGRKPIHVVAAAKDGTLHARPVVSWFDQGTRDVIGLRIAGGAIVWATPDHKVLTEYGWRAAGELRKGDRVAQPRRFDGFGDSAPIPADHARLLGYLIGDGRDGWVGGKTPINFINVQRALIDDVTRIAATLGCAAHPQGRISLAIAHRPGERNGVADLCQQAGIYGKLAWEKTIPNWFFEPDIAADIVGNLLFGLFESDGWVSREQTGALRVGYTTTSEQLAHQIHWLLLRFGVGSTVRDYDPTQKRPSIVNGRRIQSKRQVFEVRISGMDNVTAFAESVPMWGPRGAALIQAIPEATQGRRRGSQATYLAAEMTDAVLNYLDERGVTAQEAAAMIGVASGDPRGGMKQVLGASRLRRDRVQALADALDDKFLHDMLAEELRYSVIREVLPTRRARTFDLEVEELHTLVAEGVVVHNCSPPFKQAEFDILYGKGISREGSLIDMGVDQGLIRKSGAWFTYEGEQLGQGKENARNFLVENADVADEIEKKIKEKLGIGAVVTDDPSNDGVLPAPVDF

[6] = biological target: T3, Streptokinase A (Streptococcus pyogenes serotype M1, UniProt P10520); experiment: S. pyogenes streptokinase expression inhibitors, potency, dose response, plasminogen activation absorbance, OD405 (AID 1914); type: functional, Streptococcus pyogenes M1 GAS;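 note: secreted streptokinase activity via plasminogen activation per viability signal from cell pellet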
T3 sequence (P10520 whole entry): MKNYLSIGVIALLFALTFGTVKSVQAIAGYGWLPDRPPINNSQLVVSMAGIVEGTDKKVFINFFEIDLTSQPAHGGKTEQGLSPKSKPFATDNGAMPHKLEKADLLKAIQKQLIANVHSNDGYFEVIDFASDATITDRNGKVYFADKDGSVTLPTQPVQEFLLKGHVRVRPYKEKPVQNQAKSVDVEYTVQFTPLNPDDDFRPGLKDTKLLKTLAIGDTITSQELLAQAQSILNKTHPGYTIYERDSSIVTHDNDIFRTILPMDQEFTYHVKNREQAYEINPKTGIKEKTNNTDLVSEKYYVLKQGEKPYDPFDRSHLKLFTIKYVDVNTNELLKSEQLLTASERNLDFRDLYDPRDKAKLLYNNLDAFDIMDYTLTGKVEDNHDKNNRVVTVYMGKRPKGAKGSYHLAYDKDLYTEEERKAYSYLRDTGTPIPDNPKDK

[7] = biological target: T4, Replicative DNA helicase DnaB (Mycobacterium tuberculosis, UniProt P9WMR3); experiment: DnaB intein splicing inhibitors, dose response, biochemical, cell-free fluorescence (AID 449749); type: functional
T4 sequence (P9WMR3 whole entry): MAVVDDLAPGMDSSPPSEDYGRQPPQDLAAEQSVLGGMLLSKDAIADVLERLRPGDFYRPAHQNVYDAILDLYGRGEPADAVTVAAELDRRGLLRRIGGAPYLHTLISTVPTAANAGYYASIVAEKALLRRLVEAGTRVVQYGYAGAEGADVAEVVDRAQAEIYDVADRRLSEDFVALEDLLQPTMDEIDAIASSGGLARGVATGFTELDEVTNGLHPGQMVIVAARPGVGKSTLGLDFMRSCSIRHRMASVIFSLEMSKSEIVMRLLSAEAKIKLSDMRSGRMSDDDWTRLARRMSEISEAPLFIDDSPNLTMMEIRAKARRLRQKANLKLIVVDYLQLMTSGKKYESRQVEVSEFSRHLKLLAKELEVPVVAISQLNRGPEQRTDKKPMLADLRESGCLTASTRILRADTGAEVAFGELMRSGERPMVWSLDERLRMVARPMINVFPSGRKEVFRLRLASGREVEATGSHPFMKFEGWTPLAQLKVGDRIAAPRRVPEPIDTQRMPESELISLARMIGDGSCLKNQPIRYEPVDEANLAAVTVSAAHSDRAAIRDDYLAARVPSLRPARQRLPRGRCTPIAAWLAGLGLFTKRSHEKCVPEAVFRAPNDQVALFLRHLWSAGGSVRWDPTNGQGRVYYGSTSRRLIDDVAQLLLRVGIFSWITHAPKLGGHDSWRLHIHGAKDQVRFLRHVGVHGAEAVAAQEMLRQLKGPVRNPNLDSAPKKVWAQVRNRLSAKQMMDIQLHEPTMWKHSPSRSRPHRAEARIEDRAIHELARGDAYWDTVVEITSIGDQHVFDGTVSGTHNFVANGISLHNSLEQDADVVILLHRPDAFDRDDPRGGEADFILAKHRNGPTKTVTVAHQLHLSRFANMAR

[8] = HEK293T cytotoxicity, dose response, cytotoxicity control for miR-122 modulator project, cell-based, activator set, cherry-pick (AID 720690); type: functional;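 note: HEK293T human cells scored for general mammalian cytotoxicity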
[9] = biological target: 5-hydroxytryptamine receptor 1A (Homo sapiens, UniProt P08908); type: functional
Chain of 5-hydroxytryptamine receptor 1A (P08908 whole entry): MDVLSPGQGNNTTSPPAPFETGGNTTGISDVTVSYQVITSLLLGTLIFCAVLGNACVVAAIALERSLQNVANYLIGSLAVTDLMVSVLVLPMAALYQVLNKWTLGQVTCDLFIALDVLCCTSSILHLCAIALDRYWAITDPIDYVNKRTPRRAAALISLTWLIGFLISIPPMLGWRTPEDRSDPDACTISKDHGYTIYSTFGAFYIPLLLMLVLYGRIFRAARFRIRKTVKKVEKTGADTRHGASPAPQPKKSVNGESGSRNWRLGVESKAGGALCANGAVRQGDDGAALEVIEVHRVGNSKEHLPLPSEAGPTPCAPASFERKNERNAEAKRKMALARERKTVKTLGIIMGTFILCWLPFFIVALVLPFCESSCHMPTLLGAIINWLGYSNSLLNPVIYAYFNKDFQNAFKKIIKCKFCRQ

[10] = HEK293T cytotoxicity, dose response, cytotoxicity control for miR-122 modulator project, cell-based, inhibitor set, cherry-pick, set 2 (AID 720697); type: functional
[11] = biological target: Dual specificity protein phosphatase 6 (Rattus norvegicus, UniProt Q64346); experiment: MKP-3 phosphatase inhibitors, primary screen, biochemical, rat enzyme, in vitro (AID 425)
Chain of Dual specificity protein phosphatase 6 (Q64346 whole entry): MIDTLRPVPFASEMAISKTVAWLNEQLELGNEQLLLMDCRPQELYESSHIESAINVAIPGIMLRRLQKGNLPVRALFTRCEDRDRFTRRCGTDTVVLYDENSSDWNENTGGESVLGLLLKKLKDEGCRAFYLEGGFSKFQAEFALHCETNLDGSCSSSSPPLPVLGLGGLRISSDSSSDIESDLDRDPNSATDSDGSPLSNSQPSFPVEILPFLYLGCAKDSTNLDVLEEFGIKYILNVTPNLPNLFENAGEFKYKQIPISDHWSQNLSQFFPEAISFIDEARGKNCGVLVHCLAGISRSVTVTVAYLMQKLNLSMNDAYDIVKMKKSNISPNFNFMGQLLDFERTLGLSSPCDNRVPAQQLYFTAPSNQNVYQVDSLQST

[12] = biological target: Genome polyprotein (Hepatitis C virus, UniProt Q2Q167); experiment: HCV core protein dimerization inhibitors, dose response, biochemical, TR-FRET (AID 2159); set-up: species or system Hepacivirus hominis;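 note: blocks dimerization of HCV core protein measured by TR-FRET between tagged core106 pairs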
Chain of Genome polyprotein (Q2Q167 whole entry): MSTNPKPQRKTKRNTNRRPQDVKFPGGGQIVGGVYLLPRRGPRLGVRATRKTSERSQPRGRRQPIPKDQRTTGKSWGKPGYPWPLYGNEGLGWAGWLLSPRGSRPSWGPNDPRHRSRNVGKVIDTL

[13] = biological target: Tyrosine-protein phosphatase non-receptor type 11 (Homo sapiens, UniProt Q06124); experiment: SHP2 phosphatase inhibition, dose response, selectivity assay for STEP inhibitor project, biochemical (AID 602367); type: functional; settings: read-out: IC50_Mean
Chain of Tyrosine-protein phosphatase non-receptor type 11 (Q06124 whole entry): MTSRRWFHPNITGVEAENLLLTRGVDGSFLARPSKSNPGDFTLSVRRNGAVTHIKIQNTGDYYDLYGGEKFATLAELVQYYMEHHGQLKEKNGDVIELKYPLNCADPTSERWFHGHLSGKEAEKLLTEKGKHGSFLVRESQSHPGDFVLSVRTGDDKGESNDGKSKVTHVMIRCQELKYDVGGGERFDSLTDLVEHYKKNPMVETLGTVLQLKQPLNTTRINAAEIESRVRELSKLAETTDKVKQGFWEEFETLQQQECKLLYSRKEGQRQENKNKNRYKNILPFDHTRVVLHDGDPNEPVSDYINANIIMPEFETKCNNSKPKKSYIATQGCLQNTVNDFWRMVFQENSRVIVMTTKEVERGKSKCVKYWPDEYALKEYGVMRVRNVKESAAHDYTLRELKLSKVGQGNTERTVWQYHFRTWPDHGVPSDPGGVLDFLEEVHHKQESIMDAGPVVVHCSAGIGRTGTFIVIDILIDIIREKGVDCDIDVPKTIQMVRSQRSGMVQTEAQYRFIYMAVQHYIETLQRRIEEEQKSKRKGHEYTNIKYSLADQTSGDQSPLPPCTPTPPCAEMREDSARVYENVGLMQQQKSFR

[14] = biological target: Tyrosine-protein phosphatase non-receptor type 5 (Homo sapiens, UniProt P54829); experiment: STEP phosphatase inhibitors, confirmation, biochemical, fluorescence intensity, uHTS hits (AID 602372); type: functional; settings: read-out: IC50_Mean
[15] = biological target: Peroxisome proliferator-activated receptor gamma/Nuclear receptor coactivator 3 (Homo sapiens, UniProt P37231); experiment: (§1) TR-FRET dose response biochemical High Throughput Screening assay for agonists of the steroid receptor coactivator 3 (SRC-3) recruitment by the peroxisome proliferator-activated receptor gamma (PPAR gamma): non-selective agonists. [Related pubchem assays: 1301 (Confirmation screen.), 1048 (Primary screen.)]; type: functional
[16] = biological target: Peroxisome proliferator-activated receptor gamma/Nuclear receptor coactivator 1 (Homo sapiens, UniProt P37231); experiment: as §1, with “1 (SRC-1)” for “3 (SRC-3)”, “assays (depositor defined):AID1300, AID1808, AID504735, AID631]” for “assays: 1301 (Confirmation screen.), 1048 (Primary screen.)]”; type: protein assay
Chain of Peroxisome proliferator-activated receptor gamma/Nuclear receptor coactivator 1 (P37231 whole entry): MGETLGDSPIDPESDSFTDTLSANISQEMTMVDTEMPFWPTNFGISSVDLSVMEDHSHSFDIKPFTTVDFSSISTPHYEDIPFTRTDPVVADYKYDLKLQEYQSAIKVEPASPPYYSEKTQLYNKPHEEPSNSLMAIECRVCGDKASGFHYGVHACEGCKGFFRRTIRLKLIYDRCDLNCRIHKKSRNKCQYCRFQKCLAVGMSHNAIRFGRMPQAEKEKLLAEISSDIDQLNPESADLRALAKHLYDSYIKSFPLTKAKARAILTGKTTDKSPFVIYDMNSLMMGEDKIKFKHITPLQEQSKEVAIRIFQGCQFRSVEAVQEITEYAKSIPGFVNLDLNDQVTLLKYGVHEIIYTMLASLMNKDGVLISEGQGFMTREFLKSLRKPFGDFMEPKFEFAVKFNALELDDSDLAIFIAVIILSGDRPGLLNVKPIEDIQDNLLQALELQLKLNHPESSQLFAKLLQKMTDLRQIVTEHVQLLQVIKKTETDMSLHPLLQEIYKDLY
Chain of Peroxisome proliferator-activated receptor gamma/Nuclear receptor coactivator 1 (Q15788 whole entry, further chain): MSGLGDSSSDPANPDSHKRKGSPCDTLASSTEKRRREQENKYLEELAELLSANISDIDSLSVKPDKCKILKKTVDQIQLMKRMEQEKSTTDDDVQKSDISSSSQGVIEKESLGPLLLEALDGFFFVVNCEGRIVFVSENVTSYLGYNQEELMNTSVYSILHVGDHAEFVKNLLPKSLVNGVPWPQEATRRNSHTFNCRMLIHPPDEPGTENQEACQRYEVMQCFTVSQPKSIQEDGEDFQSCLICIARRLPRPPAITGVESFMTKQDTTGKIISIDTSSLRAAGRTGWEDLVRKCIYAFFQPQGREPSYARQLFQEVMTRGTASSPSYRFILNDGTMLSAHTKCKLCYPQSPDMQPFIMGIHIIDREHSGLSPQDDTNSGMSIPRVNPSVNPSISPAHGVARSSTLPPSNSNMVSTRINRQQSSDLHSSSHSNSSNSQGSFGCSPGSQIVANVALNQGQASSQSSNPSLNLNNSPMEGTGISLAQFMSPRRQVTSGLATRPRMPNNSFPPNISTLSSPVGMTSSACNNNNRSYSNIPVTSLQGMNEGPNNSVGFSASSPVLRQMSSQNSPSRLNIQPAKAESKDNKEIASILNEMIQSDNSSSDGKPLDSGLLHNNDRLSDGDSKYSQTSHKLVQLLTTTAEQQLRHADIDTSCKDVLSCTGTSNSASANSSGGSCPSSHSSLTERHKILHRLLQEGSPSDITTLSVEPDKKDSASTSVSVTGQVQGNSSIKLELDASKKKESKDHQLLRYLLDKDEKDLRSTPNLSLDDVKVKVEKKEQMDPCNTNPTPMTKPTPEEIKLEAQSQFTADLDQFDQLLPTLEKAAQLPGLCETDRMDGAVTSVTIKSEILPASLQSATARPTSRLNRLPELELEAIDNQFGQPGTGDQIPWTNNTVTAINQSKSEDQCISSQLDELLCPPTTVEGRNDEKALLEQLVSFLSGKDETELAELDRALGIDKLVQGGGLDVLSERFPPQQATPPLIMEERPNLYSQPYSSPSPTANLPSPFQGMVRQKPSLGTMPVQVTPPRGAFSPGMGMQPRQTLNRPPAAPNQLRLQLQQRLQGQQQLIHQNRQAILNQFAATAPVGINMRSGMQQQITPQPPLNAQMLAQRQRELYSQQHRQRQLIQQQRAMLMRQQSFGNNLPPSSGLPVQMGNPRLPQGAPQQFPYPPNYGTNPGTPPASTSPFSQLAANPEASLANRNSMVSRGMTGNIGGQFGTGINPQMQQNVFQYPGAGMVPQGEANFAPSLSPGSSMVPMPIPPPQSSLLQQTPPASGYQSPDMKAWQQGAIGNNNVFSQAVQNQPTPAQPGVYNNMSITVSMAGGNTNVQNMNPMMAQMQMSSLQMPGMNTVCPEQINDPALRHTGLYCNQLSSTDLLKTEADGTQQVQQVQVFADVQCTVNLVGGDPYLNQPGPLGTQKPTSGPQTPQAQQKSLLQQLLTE

[17] = biological target: Prothrombin (Bos taurus, UniProt P00735); experiment: thrombin inhibition, dose response, biochemical, fluorescence polarization, uHTS hits (AID 602369); type: functional
[18] = biological target: Dual specificity protein phosphatase 3 (Homo sapiens, UniProt P51452); experiment: VHR phosphatase inhibition, dose response, selectivity assay for STEP inhibitor project, biochemical (AID 602374); type: functional; settings: read-out: IC50_Mean
Chain of Dual specificity protein phosphatase 3 (P51452 whole entry): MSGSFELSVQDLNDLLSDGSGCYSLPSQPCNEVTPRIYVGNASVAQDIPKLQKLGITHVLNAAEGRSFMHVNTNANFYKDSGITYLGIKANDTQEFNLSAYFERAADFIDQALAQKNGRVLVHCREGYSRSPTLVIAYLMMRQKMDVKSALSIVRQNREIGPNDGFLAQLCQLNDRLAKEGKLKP

[19] = biological target: 72 kDa type IV collagenase (Homo sapiens, UniProt P08253); experiment: Dose Response validation of uHTS RPN11 inhibitor hits using a MMP-2 Fluorescence assay.; type: functional
Chain of 72 kDa type IV collagenase (P08253 whole entry): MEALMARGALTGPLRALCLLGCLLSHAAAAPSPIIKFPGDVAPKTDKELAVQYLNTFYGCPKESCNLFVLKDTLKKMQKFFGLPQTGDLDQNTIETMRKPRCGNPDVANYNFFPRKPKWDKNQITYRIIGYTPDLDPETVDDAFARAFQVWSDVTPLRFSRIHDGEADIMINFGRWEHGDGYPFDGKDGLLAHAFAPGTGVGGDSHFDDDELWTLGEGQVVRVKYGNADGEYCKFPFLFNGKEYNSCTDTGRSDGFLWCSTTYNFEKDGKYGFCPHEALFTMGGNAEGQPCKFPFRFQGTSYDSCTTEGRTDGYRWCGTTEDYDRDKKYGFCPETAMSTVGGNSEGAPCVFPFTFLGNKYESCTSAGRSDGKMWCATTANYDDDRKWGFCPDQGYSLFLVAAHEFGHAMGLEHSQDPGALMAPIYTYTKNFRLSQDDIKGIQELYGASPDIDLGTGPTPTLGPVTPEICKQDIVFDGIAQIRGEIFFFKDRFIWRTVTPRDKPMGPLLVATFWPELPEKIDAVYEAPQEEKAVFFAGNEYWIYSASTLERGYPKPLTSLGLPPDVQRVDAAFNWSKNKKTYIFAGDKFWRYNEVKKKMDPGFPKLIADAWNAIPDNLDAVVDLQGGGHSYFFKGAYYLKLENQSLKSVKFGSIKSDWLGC

[20] = biological target: 26S proteasome non-ATPase regulatory subunit 14 (Homo sapiens, UniProt O00487); experiment: inhibition of proteasome subunit RPN11 – biochemical, fluorescence polarization, uHTS hits, confirmation (AID 602368); type: functional
Chain of 26S proteasome non-ATPase regulatory subunit 14 (O00487 whole entry, the tested form may be a part): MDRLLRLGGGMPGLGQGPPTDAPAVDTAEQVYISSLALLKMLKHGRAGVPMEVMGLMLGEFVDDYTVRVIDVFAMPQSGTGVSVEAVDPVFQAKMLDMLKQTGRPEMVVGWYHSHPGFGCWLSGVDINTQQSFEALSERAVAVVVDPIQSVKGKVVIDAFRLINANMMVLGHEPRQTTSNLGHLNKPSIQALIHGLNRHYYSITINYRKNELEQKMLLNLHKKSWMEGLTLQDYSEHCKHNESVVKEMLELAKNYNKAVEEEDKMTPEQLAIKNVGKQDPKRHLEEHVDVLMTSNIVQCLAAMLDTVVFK

[21] = biological target: T5, Carboxy-terminal domain RNA polymerase II polypeptide A small phosphatase 1 (Homo sapiens, UniProt Q9GZU7); experiment: inhibitors of CTDSP1, concentration-response testing, biochemical assay, absorbance-based, actives from ultra-high-throughput screening (AID 540297); type: functional
T5 sequence (Q9GZU7 whole entry): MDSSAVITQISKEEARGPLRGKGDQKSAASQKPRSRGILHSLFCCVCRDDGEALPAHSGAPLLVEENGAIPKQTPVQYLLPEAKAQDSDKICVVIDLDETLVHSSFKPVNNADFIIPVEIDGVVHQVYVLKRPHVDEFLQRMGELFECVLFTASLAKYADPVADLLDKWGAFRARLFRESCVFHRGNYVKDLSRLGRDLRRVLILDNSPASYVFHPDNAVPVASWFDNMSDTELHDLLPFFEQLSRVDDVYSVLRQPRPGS

[22] = biological target: Peroxisome proliferator-activated receptor gamma/Nuclear receptor coactivator 2 (Homo sapiens, UniProt P37231); experiment: TR-FRET dose response biochemical High Throughput Screening assay for agonists of the steroid receptor coactivator 2 (SRC-2) recruitment by the peroxisome proliferator-activated receptor gamma (PPAR gamma): non-selective agonists. [Related pubchem assays: 1297, 1032 ]; type: functional
[23] = biological target: T6, Tyrosine-protein phosphatase non-receptor type 22 (Homo sapiens, UniProt Q9Y2R2); experiment: PTPN22 phosphatase inhibition, dose response, selectivity assay for STEP inhibitor project, biochemical (AID 624241); type: functional
T6 sequence (Q9Y2R2 whole entry): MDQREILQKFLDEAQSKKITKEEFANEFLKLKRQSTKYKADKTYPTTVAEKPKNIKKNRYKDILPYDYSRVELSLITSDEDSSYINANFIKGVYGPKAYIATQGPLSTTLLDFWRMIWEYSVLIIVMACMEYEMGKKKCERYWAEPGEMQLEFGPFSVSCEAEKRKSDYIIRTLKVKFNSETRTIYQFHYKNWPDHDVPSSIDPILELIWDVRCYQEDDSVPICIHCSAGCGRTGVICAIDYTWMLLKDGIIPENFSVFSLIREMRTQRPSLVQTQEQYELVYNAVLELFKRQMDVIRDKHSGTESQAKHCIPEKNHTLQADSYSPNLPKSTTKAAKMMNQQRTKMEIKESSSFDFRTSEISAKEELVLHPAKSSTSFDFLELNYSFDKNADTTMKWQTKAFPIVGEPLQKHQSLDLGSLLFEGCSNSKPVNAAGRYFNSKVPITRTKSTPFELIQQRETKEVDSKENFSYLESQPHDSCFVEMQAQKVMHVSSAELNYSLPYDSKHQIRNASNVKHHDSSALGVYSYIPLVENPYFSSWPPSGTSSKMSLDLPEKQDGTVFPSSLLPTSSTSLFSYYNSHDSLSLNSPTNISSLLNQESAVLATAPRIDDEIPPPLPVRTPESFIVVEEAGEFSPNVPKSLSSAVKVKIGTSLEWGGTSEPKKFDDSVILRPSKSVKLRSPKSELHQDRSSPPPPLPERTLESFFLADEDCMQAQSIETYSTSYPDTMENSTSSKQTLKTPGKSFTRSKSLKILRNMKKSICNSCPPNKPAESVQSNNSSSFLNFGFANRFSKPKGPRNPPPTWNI

[24] = biological target: 14-3-3 protein gamma (Homo sapiens, UniProt P61981); experiment: modulators of 14-3-3 gamma client binding – dose response (AID 711); type: functional
Chain of 14-3-3 protein gamma (P61981 whole entry): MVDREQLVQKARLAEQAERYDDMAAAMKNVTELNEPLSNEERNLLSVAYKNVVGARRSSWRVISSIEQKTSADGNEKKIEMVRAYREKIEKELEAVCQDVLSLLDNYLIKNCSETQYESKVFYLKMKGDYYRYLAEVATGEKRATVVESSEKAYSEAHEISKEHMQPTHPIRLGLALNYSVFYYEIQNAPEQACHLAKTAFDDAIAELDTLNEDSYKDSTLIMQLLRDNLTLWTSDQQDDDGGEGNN

## Cc1cccc(CS(=O)(=O)c2nnc([C@H](Cc3ccccc3)NC(=O)OC(C)(C)C)o2)c1
[1]
  EC50: 8.25 µM (active)
[2]
  IC50: 0.87 µM (active)
[3]
  EC50: 10.2 µM (active)
[4]
  EC50: 2.19 µM (active)
[5]
  EC50: 5.42 µM (active)
[6]
  EC50: 1.5 µM (active)
[7]
  AC50: 2.68 µM (active)

## CCOC(=O)C1CCN(C(c2cccnc2)c2c(NC(=O)c3ccco3)sc(C)c2C)CC1 (centres undefined)
[8]
  AC50: 29.4 µM (active)
[9]
  EC50: > 50 µM (not active)
[10]
  AC50: 1.05 µM (active)

## Cc1cccc(Nc2nn3c(=O)c4ccccc4nc3s2)c1
[11]
  IC50: > 10 µM (not active)
[12]
  IC50: > 49.8 µM (not active)
[13]
  IC50: 1.71 µM (active)
[14]
  IC50: 4.17 µM (active)
[15]
  EC50: > 79.4 µM (not active)
[16]
  EC50: 32.2 µM (inactive)
[17]
  IC50: > 100 µM (inactive)
[18]
  IC50: 1.21 µM (active)
[19]
  IC50: 5.79 µM (active)
[20]
  IC50: 17.6 µM (active)
[21]
  IC50: 3.16 µM (active)
[22]
  EC50: 21.7 µM (not active)
[23]
  IC50: 96.2 µM (inactive)

## CN1C(=S)SC(N(O)C(=O)Nc2ccccc2)C1(C)C (centres undefined)
[24]
  IC50: > 50 µM (not active)

Reference: ChEMBL document CHEMBL1201862, “PubChem BioAssay data set” (2004)
